From PMC10128460, “Discovery of the first-in-class potent and isoform-selective human carbonic anhydrase III inhibitors” (Journal of Enzyme Inhibition and Medicinal Chemistry, 2023)
Values joined by “and” are separate entries in the source; they are usually repeats but may differ in a detail not shown here. Equal values may be shown once. Read-outs that look alike come from different tables or passages of the source.

What was measured:
[1] = molecular target: T1, hCA III (Homo sapiens, UniProt P07451); design: method as in PMID 23605884; details: HPLC assay; cited from earlier work
T1 construct: made in house
T1 sequence (P07451 whole entry): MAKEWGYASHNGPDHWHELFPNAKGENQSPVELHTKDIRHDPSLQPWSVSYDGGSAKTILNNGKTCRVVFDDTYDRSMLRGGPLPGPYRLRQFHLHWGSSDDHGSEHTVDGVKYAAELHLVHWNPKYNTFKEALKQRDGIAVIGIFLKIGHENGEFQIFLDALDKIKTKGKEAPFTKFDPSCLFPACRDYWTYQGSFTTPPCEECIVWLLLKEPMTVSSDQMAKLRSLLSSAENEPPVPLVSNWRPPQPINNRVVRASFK

[2] = molecular target: T2, hCA IV (Homo sapiens, UniProt P22748); experiment: Stopped-Flow CO2 hydrase assay, hCA IV; type: biochemical; details: mean from 3 assays, errors ± 5–10%
T2 construct: made in house
T2 sequence (P22748 19-312): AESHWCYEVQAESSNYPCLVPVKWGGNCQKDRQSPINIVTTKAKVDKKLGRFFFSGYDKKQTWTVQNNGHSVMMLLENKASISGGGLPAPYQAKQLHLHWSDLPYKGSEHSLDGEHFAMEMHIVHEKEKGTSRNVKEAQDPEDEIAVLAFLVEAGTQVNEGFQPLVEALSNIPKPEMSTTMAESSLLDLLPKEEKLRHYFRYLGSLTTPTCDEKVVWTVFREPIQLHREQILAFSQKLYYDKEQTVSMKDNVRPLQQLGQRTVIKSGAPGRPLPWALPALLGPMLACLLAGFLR
Description: (§1) An Applied Photophysics stopped-flow instrument has been used for assaying the CA catalysed CO2 hydration activity[47]. […] The CO2 concentrations ranged from 1.7 to 17 mM for the determination of the kinetic parameters and inhibition constants. […] The uncatalysed rates were determined in the same manner and subtracted from the total observed rates. Stock solutions of inhibitor (0.1 mM) were prepared in distilled − deionized water and dilutions up to 0.01 nM were done thereafter with the assay buffer. Inhibitor and enzyme solutions were preincubated together for 15 min at room temperature before assay to allow for the formation of the E − I complex. The inhibition constants were obtained by nonlinear least-squares methods using PRISM 3 and the Cheng − Prusoff equation, as reported earlier[48]^,[49], and represent the mean from at least three different determinations. […] All hCA isoforms were recombinant ones obtained in-house as reported earlier[50].

[3] = molecular target: T3, hCA VA (Homo sapiens, UniProt P35218); experiment: Stopped-Flow CO2 hydrase assay, hCA VA; type: biochemical
T3 construct: made in house
T3 sequence (P35218 39-305): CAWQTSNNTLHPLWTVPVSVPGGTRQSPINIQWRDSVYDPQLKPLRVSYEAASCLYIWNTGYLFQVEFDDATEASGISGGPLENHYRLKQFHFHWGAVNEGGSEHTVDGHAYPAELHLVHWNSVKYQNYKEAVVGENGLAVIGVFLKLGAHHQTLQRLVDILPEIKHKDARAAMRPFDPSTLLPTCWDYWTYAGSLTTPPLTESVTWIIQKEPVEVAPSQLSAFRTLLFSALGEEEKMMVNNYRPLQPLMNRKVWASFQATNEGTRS
Description: as §1

[4] = molecular target: T4, hCA VB (Homo sapiens, UniProt Q9Y2D0); experiment: Stopped-Flow CO2 hydrase assay, hCA VB; type: biochemical; details: mean from 3 assays, errors ± 5–10%
T4 construct: made in house
T4 sequence (Q9Y2D0 34-317): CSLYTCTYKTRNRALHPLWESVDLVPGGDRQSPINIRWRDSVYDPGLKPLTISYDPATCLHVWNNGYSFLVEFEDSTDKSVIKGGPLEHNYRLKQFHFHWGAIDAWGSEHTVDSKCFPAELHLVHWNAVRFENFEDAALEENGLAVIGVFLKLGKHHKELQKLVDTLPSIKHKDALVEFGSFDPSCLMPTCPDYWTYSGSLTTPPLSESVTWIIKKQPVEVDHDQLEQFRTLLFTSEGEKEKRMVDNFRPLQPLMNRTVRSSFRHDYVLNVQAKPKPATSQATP
Description: as §1

[5] = molecular target: T5, hCA II (Homo sapiens, UniProt P00918); experiment: Stopped-Flow CO2 hydrase assay, hCA II; type: biochemical; details: mean from 3 assays, errors ± 5–10%
T5 construct: made in house
Description: as §1

[6] = molecular target: T6, hCA XII (Homo sapiens, UniProt O43570); experiment: Stopped-Flow CO2 hydrase assay, hCA XII; type: biochemical; details: mean from 3 assays, errors ± 5–10%
T6 construct: made in house
T6 sequence (O43570 25-354): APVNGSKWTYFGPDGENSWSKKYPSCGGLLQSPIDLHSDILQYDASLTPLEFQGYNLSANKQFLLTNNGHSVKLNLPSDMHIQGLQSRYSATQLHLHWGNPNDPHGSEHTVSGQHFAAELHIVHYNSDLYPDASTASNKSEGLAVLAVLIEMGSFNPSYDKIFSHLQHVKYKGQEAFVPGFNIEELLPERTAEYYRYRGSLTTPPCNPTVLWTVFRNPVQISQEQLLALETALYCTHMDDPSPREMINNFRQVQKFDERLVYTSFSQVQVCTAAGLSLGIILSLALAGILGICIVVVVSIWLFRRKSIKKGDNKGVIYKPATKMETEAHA
Description: as §1

[7] = molecular target: T7, hCA VII (Homo sapiens, UniProt P43166); experiment: Stopped-Flow CO2 hydrase assay, hCA VII; type: biochemical; details: mean from 3 assays, errors ± 5–10%
T7 construct: made in house
T7 sequence (P43166 whole entry): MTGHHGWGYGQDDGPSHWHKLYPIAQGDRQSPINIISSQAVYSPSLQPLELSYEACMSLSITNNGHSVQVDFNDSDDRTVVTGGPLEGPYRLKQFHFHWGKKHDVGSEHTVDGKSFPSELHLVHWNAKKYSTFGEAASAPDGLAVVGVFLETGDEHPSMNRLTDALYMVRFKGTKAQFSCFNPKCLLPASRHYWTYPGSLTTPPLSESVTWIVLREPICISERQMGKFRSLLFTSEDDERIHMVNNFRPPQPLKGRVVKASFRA
Description: as §1

[8] = molecular target: T1, hCA III; experiment: Stopped-Flow CO2 hydrase assay, hCA III; type: biochemical; details: for Selectivity Index (SI) hCA I/hCA III: ratio of KI hCA I to KI hCA III; for Selectivity Index (SI) hCA II/hCA III: ratio of KI hCA II to KI hCA III; for Ki: stopped-flow CO2 hydrase, mean from 3 assays, errors ± 5–10%
Description: as §1

[9] = molecular target: T8, hCA I (Homo sapiens, UniProt P00915); experiment: Stopped-Flow CO2 hydrase assay, hCA I; type: biochemical; details: mean from 3 assays, errors ± 5–10%
T8 construct: made in house
T8 sequence (P00915 whole entry): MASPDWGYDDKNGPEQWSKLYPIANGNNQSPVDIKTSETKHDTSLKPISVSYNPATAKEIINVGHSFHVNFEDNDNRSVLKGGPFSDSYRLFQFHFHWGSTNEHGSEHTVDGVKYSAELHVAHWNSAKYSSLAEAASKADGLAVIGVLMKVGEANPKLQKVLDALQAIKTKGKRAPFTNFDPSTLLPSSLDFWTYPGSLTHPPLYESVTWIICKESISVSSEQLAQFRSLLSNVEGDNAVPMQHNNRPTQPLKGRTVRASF
Description: as §1

[10] = stopped-flow CO2 hydrase, mean from 3 assays, errors ± 5–10%, read-out: KI hCA VA

Compound | Ki [1] [µM] | melting point [°C] | Ki [2] [µM] | Ki [3] [µM] | Ki [4] [µM] | Ki [5] [µM] | Ki [6] [µM] | Ki [7] [µM] | Selectivity Index (SI) hCA I/hCA III [8] | Selectivity Index (SI) hCA II/hCA III [8] | Ki [8] [µM] | Ki [9] [µM] | Ki [3, 10] [µM]
COc1cc(C(=O)O)ccc1O [vanillic acid] | 87 |  |  |  |  |  |  |  |  |  |  |  | 
NS(=O)(=O)CCCCn1cc(CNC(=O)Nc2ccc(F)cc2)nn1 [Compound 44, 4–(4-((3–(4-Fluorophenyl)ureido)methyl)-1H-1,2,3-triazol-1-yl)butane-1-sulfonamide] |  | 284 to 286 | 2.92 | 1.35 | 2.55 | 7.58 | 3.71 | 3.35 | 9.0 | 12.66 and 12.7 | 0.599 | 5.38 | 
NS(=O)(=O)CCCCn1cc(COc2ccc(F)cc2)nn1 [Compound 41, 4–(4-((4-Fluorophenoxy)methyl)-1H-1,2,3-triazol-1-yl)butane-1-sulfonamide] |  | 246 to 248 | 5.51 |  | 1.24 | 8.13 | 2.1 | 5.33 | 10.4 | 13.14 and 13.1 | 0.618 | 6.43 | 4.39
NS(=O)(=O)CCCCn1cc(CNC(=O)Nc2ccc(C(F)(F)F)cc2)nn1 [Compound 46, 4–(4-((3–(4-(Trifluoromethyl)phenyl)ureido)methyl)-1H-1,2,3-triazol-1-yl)butane-1-sulfonamide] |  | > 300 | 3.59 |  | 5.87 | 0.879 | 2.63 | 3.61 | 9.7 | 1.6 | 0.553 | 5.39 | 1.8
Cc1ccc(NC(=O)NCc2cn(CCCS(N)(=O)=O)nn2)cc1 [Compound 32, 3–(4-((3-(p-Tolyl)ureido)methyl)-1H-1,2,3-triazol-1-yl)propane-1-sulfonamide] |  | 217 to 218 | 6.16 |  | 1.61 | 2.97 | 5.03 | 4.4 |  | 3.8 | 0.772 | > 10 | 8.7
COc1ccc(OCc2cn(CCCS(N)(=O)=O)nn2)cc1 [Compound 29, 3–(4-((4-Methoxyphenoxy)methyl)-1H-1,2,3-triazol-1-yl)propane-1-sulfonamide] |  | 273 to 274 | 5.44 |  | 3.03 | 2.45 | 1.95 | 2.71 | 2.1 | 4.4 | 0.554 | 1.16 | 4.81
NS(=O)(=O)CCCn1cc(COc2ccc(F)cc2)nn1 [Compound 28, 3–(4-((4-Fluorophenoxy)methyl)-1H-1,2,3-triazol-1-yl)propane-1-sulfonamide] |  | 261 to 263 | > 10 |  | 2.47 | 2.03 | 2.48 | 4.37 | 6.7 | 2.8 | 0.728 | 4.89 | 1.03
NS(=O)(=O)CCCn1cc(CNC(=O)Nc2ccc(C(F)(F)F)cc2)nn1 [Compound 33, 3–(4-((3–(4-(Trifluoromethyl)phenyl)ureido)methyl)-1H-1,2,3-triazol-1-yl)propane-1-sulfonamide] |  | > 300 | 0.875 |  | 2.09 | 4.16 | 2.63 | 5.41 |  | 4.2 | 0.989 | > 10 | 7.04
NS(=O)(=O)CCCCn1cc(COc2ccccc2)nn1 [Compound 40, 4–(4-(Phenoxymethyl)-1H-1,2,3-triazol-1-yl)butane-1-sulfonamide] |  | 221 to 223 | 3.61 |  | 1.53 | 7.77 | 5.18 | 7.61 | 8.0 | 9.5 | 0.818 | 6.54 | 7.78
